According to the supplement of paper PMC10307832:

Assays:
Test in all cases: relative viability (nuclei count vs DMSO), 5 days (fraction); higher = more cells survive
[1] = compound: C1/C(=C\C2=CC=CS2)/C(=O)/C(=C/C3=CC=CS3)/C1 + CS(=O)(=O)CCNCc1ccc(-c2ccc3ncnc(Nc4ccc(OCc5cccc(F)c5)c(Cl)c4)c3c2)o1 [Lapatinib] (partner 2 µM)
How it was run: (§1)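 Lung cancer cell lines were pin-tool dosed in 1536-well plates on the day after seeding, with either a lone drug or a fixed anchor-drug dose plus five library-drug doses (not always all listed) in √10 steps. Nuclei were counted on 4× images after 5 days. Relative viability is the ratio of treated-well to vehicle-well nuclei counts, with each value a median of duplicate plates.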

[2] = compound: C[C@]12O[C@H](C[C@]1(O)CO)n1c3ccccc3c3c4c(c5c6ccccc6n2c5c31)CNC4=O [Lestaurtinib] + CC(=O)c1c(C)c2cnc(Nc3ccc(N4CCNCC4)cn3)nc2n(C2CCCC2)c1=O [Palbociclib] (partner 0.5 µM)
How it was run: as §1

[3] = compound: C[C@]12O[C@H](C[C@]1(O)CO)n1c3ccccc3c3c4c(c5c6ccccc6n2c5c31)CNC4=O [Lestaurtinib] + CC(=O)Nc1cccc(-n2c(=O)n(C3CC3)c(=O)c3c(Nc4ccc(I)cc4F)n(C)c(=O)c(C)c32)c1 [Trametinib] (partner 0.02 µM)
How it was run: as §1

[4] = compound: C[C@]12O[C@H](C[C@]1(O)CO)n1c3ccccc3c3c4c(c5c6ccccc6n2c5c31)CNC4=O [Lestaurtinib] + C[C@@H](Oc1cc(-c2cnn(C3CCNCC3)c2)cnc1N)c1c(Cl)ccc(F)c1Cl [Crizotinib] (partner 1 µM)
How it was run: as §1

Cell Line | relative viability ([1]; first compound 0.2 µM) | relative viability ([1]; first compound 0.6325 µM) | relative viability ([1]; first compound 2 µM) | relative viability ([1]; first compound 6.325 µM) | relative viability ([1]; first compound 20 µM) | relative viability ([2]; first compound 0.005 µM) | relative viability ([2]; first compound 0.01581 µM) | relative viability ([2]; first compound 0.05 µM) | relative viability ([2]; first compound 0.1581 µM) | relative viability ([2]; first compound 0.5 µM) | relative viability ([3]; first compound 0.005 µM) | relative viability ([3]; first compound 0.01581 µM) | relative viability ([3]; first compound 0.05 µM) | relative viability ([3]; first compound 0.1581 µM) | relative viability ([3]; first compound 0.5 µM) | relative viability ([4]; first compound 0.005 µM) | relative viability ([4]; first compound 0.01581 µM) | relative viability ([4]; first compound 0.05 µM) | relative viability ([4]; first compound 0.1581 µM) | relative viability ([4]; first compound 0.5 µM)
HARA | 0.768 | 0.657 | 0.874 | 0.321 | 0.818 | 0.233 | 0.32 | 0.278 | 0.234 | 0.243 | 0.639 | 0.832 | 0.685 | 1.09 | 0.268 | 1.19 | 1.21 | 0.86 | 0.994 | 0.162
NCI-H1793 | 0.913 | 0.611 | 0.86 | 0.519 | 0.674 | 0.333 | 0.36 | 0.324 | 0.335 | 0.26 | 0.425 | 0.467 | 0.432 | 0.461 | 0.346 | – | – | – | – | –
NCI-H2009 | 0.882 | 0.872 | 1.02 | 0.868 | 0.917 | 0.221 | 0.226 | 0.183 | 0.194 | 0.133 | 0.28 | 0.233 | 0.206 | 0.235 | 0.185 | 1.02 | 1.09 | 1 | 0.637 | 0.454
ABC-1 | 1.28 | 1.09 | 1.03 | 0.971 | 1.27 | 0.618 | 0.625 | 0.647 | 0.619 | 0.42 | – | – | – | – | – | 1.15 | 1.58 | 0.92 | 0.882 | 0.26
IA-LM | 1.08 | 0.749 | 0.779 | 0.757 | 0.67 | – | – | – | – | – | – | – | – | – | – | 0.862 | 1.06 | 1.14 | 0.921 | 0.415
NCI-H322M | 0.619 | 0.648 | 0.657 | 0.568 | 0.582 | 0.473 | 0.497 | – | 0.515 | 0.519 | 0.507 | 0.567 | – | 0.512 | 0.672 | 0.931 | 0.919 | 0.495 | 0.482 | 0.41
SW 900 | – | – | – | – | – | 0.561 | 0.666 | 0.611 | 0.828 | 0.595 | 0.959 | 0.86 | 0.691 | 1.16 | 0.876 | – | – | – | – | –
NCI-H1299 | 1.04 | 0.951 | 0.909 | 0.939 | 0.995 | – | – | – | – | – | – | – | – | – | – | 0.912 | 0.953 | 0.542 | 0.68 | 0.467
NCI-H1563 | 0.996 | 0.903 | 0.97 | 0.953 | 0.955 | – | – | – | – | – | – | – | – | – | – | 0.913 | 0.921 | 0.837 | 0.907 | 0.794
NCI-H596 | 1.13 | 1.03 | 1.1 | 1 | 1.02 | – | – | – | – | – | 0.691 | 0.842 | 0.848 | 0.993 | 0.845 | 0.851 | 1.05 | 0.805 | 1.02 | 0.923
Calu-6 | 1.02 | 1.03 | 0.981 | 0.991 | 0.986 | – | – | – | – | – | – | – | – | – | – | 0.753 | 0.784 | 0.282 | 0.293 | 0.16
NCI-H1395 | 1.04 | 1.13 | 1.11 | 0.886 | 1.15 | 0.646 | 0.617 | 0.547 | 0.573 | 0.477 | 1.17 | 0.896 | 0.927 | 0.923 | 0.608 | – | – | – | – | –
NCI-H1703 | 1.21 | 1.21 | 1.18 | 1.1 | 1.11 | – | – | – | – | – | – | – | – | – | – | 0.81 | 0.524 | 0.263 | 0.257 | 0.0934
EBC-1 | 0.19 | 0.197 | 0.237 | 0.205 | 0.221 | – | – | – | – | – | – | – | – | – | – | 0.182 | 0.225 | 0.183 | 0.184 | 0.175
NCI-H2342 | – | – | – | – | – | 0.518 | 0.439 | 0.545 | 0.526 | 0.504 | 0.836 | 0.817 | 0.841 | 0.849 | 0.971 | – | – | – | – | –
ChaGo-K-1 | – | – | – | – | – | 0.977 | 0.89 | 0.77 | 0.779 | 0.671 | 0.899 | 1.02 | 0.704 | 0.773 | 0.645 | 1.25 | 1.33 | 0.855 | 0.778 | 0.381
NCI-H1648 | – | – | – | – | – | – | 0.317 | – | 0.393 | 0.466 | – | 0.728 | – | 0.458 | 0.367 | – | – | – | – | –
NCI-H522 | – | – | – | – | – | 0.998 | 1 | 0.879 | 0.871 | 0.631 | 0.786 | 0.786 | 0.752 | 0.701 | 0.537 | – | – | – | – | –
A549 | 1.04 | 0.957 | 1.05 | 0.932 | 0.902 | – | – | – | – | – | – | – | – | – | – | 0.77 | 0.771 | 0.227 | 0.183 | 0.0593
NCI-H441 | – | – | – | – | – | 0.192 | 0.238 | 0.225 | 0.199 | 0.207 | 0.458 | 0.441 | 0.346 | 0.389 | 0.34 | 0.912 | 0.654 | 0.395 | 0.505 | 0.308
LCLC-103H | – | – | – | – | – | 0.524 | 0.506 | 0.497 | 0.474 | 0.51 | 0.717 | 0.741 | 0.609 | 0.592 | 0.678 | 1.11 | 1.02 | 0.867 | 0.761 | 0.593
